# Data: ChEMBL document CHEMBL4312034, “Virtual screening-driven discovery of dual 5-HT6/5-HT2A receptor ligands with pro-cognitive properties” (Eur J Med Chem, 2020)
# pKi: −log10 of the molar value.
# Key:
# Assay type in all cases: cell-based
# [1] = molecular target: 5-hydroxytryptamine receptor 6 (Homo sapiens, UniProt P50406); assay: Displacement of [3H]-LSD from human 5-HT6R expressed in HEK293 cells after 1 hr by microbeta plate reader analysis
# [2] = molecular target: 5-hydroxytryptamine receptor 7 (Homo sapiens, UniProt P34969); assay: Displacement of [3H]-CT from human 5-HT7 receptor expressed in HEK293 cells after 1 hr by microbeta plate reader analysis
# 5-hydroxytryptamine receptor 7, sequence (P34969 whole entry): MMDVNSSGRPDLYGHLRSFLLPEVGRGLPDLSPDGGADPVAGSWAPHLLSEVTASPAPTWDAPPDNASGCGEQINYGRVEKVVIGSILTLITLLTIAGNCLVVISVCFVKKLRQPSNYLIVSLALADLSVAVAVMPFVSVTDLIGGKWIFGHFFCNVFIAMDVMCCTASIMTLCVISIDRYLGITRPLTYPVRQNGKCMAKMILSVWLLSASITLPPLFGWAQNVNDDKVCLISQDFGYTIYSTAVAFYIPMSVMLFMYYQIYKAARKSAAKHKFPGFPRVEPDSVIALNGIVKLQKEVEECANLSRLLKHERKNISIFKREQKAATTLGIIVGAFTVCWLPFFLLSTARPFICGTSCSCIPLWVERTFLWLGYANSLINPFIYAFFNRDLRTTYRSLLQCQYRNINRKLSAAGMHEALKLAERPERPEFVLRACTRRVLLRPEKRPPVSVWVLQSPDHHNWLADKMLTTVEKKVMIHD
# [3] = molecular target: 5-hydroxytryptamine receptor 2A (Homo sapiens, UniProt P28223); assay: Binding affinity to human 5-HT2AR expressed in HEK293 cells by competitive binding assay
# 5-hydroxytryptamine receptor 2A, sequence (P28223 whole entry): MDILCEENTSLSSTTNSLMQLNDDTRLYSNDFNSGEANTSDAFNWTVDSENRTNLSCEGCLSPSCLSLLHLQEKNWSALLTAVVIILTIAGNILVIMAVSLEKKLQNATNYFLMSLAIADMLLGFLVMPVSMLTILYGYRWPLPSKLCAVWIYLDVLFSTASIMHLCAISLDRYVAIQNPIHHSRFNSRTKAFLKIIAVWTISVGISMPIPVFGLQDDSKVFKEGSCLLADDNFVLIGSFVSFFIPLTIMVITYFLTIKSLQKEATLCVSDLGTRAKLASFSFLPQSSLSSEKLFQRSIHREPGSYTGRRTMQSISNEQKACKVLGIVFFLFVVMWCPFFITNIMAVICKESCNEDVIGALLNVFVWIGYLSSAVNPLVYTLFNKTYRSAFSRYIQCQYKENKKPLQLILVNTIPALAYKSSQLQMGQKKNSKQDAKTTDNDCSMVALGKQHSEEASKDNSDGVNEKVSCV
# D(2) dopamine receptor = D(2) dopamine receptor (Homo sapiens, UniProt P14416); assay: Displacement of [3H]-raclopride from human D2R expressed in HEK293 cells after 1 hr by microbeta plate reader analysis
# D(2) dopamine receptor, sequence (P14416 whole entry): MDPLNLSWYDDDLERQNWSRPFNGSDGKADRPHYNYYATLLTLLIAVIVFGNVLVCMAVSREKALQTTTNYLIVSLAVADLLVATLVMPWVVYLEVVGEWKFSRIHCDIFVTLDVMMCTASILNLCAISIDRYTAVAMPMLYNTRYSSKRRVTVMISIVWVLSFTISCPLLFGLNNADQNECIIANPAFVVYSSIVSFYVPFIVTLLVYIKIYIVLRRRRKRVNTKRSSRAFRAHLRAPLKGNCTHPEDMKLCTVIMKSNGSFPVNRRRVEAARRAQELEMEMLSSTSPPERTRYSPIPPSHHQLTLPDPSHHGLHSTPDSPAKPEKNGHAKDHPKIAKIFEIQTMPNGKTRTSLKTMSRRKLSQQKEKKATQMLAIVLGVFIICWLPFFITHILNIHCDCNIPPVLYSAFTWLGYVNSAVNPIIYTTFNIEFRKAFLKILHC
# [4] = molecular target: T1, 5-hydroxytryptamine receptor 1A (Homo sapiens, UniProt P08908); assay: Displacement of [3H]-8-OH-DPAT from human 5-HT1A receptor expressed in HEK293 cells after 1 hr by microbeta plate reader analysis
# T1 sequence (P08908 whole entry): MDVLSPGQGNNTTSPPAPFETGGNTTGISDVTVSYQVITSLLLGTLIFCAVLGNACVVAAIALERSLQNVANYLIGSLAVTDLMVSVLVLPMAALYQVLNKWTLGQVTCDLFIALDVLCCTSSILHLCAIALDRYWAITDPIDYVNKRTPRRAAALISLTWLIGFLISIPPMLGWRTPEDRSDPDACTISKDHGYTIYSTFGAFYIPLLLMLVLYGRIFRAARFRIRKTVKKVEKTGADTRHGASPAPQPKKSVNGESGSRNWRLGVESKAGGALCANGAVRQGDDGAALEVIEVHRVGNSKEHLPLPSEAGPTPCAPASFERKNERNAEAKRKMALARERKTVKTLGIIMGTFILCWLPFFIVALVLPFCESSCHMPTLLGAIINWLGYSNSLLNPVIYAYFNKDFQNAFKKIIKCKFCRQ
# 5-hydroxytryptamine receptor 6, sequence (P50406 whole entry): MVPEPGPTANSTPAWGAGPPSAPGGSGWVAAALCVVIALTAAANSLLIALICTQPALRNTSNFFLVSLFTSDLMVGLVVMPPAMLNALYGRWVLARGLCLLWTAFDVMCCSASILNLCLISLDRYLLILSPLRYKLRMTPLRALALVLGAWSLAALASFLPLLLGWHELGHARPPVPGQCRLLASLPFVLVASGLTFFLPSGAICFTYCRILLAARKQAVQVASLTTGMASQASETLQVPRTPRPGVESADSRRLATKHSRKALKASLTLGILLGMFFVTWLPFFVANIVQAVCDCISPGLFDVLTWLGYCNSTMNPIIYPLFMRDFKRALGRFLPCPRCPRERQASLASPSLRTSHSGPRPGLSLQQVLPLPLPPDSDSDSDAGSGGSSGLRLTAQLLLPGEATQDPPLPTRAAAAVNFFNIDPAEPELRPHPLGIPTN
SMILES,pKi [1],pKi [2],pKi [3],pKi (D(2) dopamine receptor),pKi [4]
COc1cccc2[nH]cc(CCNCc3ccc(-c4ccc(O)cc4)o3)c12,7.85,5.68,6.88,6.75,6.14
Cn1cc(CCNCc2ccc(-c3ccccc3)o2)c2ccccc21,6.52,–,–,–,–
CN(CCc1c[nH]c2ccccc12)Cc1ccc(-c2ccccc2)o1,7.21,6.28,6.70,6.43,6.11
CCCN(CCc1c[nH]c2ccccc12)Cc1ccc(-c2ccccc2)o1,6.48,–,–,–,–
COc1ccc2[nH]cc(CC(C)NCc3ccc(-c4ccc(O)cc4)o3)c2c1 (stereo unspecified),6.46,–,–,–,–
c1ccc(-c2ccc(CNCCc3c[nH]c4ccccc34)s2)cc1,6.82,–,–,–,–
c1ccc(-c2ccc(CNCCc3c[nH]c4ccccc34)o2)cc1,7.04,5.89,6.34,6.17,6.90
COc1cccc(-c2ccc(CNC(C)Cc3cn(C)c4ccccc34)o2)c1 (stereo unspecified),5.99,–,–,–,–
c1ccc2c(-c3ccc(CNCCc4c[nH]c5ccccc45)s3)cccc2c1,6.38,–,–,–,–
c1ccc(-c2ccc(CNCCc3c[nH]c4ccccc34)[nH]2)cc1,6.58,–,–,–,–
COc1ccc2[nH]cc(CCNCc3ccc(-c4cc(Cl)cc(Cl)c4)o3)c2c1,6.68,–,–,–,–
COc1ccc(-c2ccc(CNCCc3c[nH]c4ccc(OC)cc34)o2)cc1,7.05,5.48,7.46,5.86,6.48
CC(C)Oc1cccc(-c2ccc(CNCCc3c[nH]c4ccccc34)o2)c1,6.31,–,–,–,–
Oc1ccc(-c2ccc(CNCCc3c[nH]c4ccc(Cl)cc34)o2)cc1,7.22,–,7.48,–,6.37
CC(=O)Oc1ccc(-c2ccc(CNCCc3c[nH]c4ccccc34)o2)cc1,5.83,–,–,–,–
Oc1ccc(-c2ccc(CNCCc3c[nH]c4ncccc34)o2)cc1,6.27,–,–,–,–
Clc1cc(Cl)cc(-c2ccc(CNCCc3c[nH]c4ccccc34)o2)c1,6.58,–,–,–,–
COc1ccc2[nH]cc(CCNCc3ccc(-c4ccc(Cl)cc4)o3)c2c1,7.17,5.66,6.22,6.24,6.66

SMILES,pKi [1],pKi [2],pKi [3],pKi (D(2) dopamine receptor),pKi [4]
COc1cccc(-c2ccc(CNCCc3c[nH]c4cccc(OC)c34)o2)c1,6.61,–,–,–,–
Clc1cccc(-c2ccc(CNCCc3c[nH]c4ccccc34)o2)c1,6.73,–,–,–,–
c1ccc2c(CCNCc3ccc(-c4ccc5c(c4)OCO5)o3)c[nH]c2c1,6.66,–,–,–,–
COc1ccc(-c2ccc(CNCCc3c[nH]c4ccccc34)o2)cc1OC,6.16,–,–,–,–
c1ccc2c(-c3ccc(CNCCc4c[nH]c5ccccc45)o3)cccc2c1,6.70,–,–,–,–
Oc1ccc(-c2ccc(CNCCc3c[nH]c4cc(F)ccc34)o2)cc1,8.70,5.56,7.02,6.35,6.69
COc1cccc(-c2ccc(CNCCc3c[nH]c4ccc(OC)cc34)o2)c1,7.12,6.06,6.67,–,7.04
c1coc(-c2ccc(CNCCc3c[nH]c4ccccc34)o2)c1,6.38,–,–,–,–
COc1ccc2[nH]cc(CCNCc3ccc(-c4cnc5ccccc5c4)o3)c2c1,7.00,5.01,6.07,5.99,5.98
O=[N+]([O-])c1ccc(-c2ccc(CNCCc3c[nH]c4ccccc34)o2)cc1,6.11,–,–,–,–
COc1ccc2occ(CCNCc3ccc(-c4ccc(O)cc4)o3)c2c1,5.77,–,–,–,–
COc1cccc2[nH]cc(CCNCc3ccc(-c4ccc(F)cc4)o3)c12,6.88,–,–,–,–
Oc1ccc(-c2ccc(CNCCc3coc4ccc(F)cc34)o2)cc1,6.28,–,–,–,–
Cc1ccc2[nH]cc(CCNCc3ccc(-c4ccc(O)cc4)o3)c2c1,8.30,7.29,7.66,–,6.40
COc1cccc(-c2ccc(CNCCc3cn(C)c4ccccc34)o2)c1,6.25,–,–,–,–
COc1cccc2[nH]cc(CCNCc3ccc(-c4ccccc4)o3)c12,6.96,–,–,–,–
CC(Cc1c[nH]c2ccccc12)NCc1ccc(-c2ccc(O)cc2)o1 (stereo unspecified),6.32,–,–,–,–
